Values quoted from earlier work as cited in patent US10654880B2, “Methods for preparation of glycosphingolipids and uses thereof” (priority 2011, dated 2020).

System: breast cancer tumors (4T1 cell line)
Settings: breast cancer-bearing mice (4T1), relative to untreated group

In the case of CCCCCCCCCCCCCCCCCCCCCCCCCC(=O)N[C@@H](CO[C@H]1O[C@H](CO)[C@H](O)[C@H](O)[C@H]1O)[C@H](O)[C@H](O)CCCCCCCCCCCCCC [α-GalCer, alpha-galactosylceramide], the “inhibition of tumor growth rate” value is listed as 50%.
